Experimental data: publication PMC11325505, “Nitrogen-Containing Flavonoids—Preparation and Biological Activity” (ACS Omega, 2024)

System: transmembrane efflux pumps
Assay: Ethidium bromide accumulation assay
Assay type: cell-based, S. aureus MSSA 2
Conditions: compared with comparator CCCP; concentrations 25–100 μM
Source text: The application of antibiotics often leads to oxidative stress in bacteria, which triggers the efflux pump systems that contribute to antimicrobial resistance.[34] Therefore, modulation of the efflux system has been proposed as another plausible target of derivatives. The efflux pump inhibitor carbonyl cyanide 3-chlorophenylhydrazone (CCCP) was used as a comparator in our assay. Its action destroys the proton-motive force at the membrane so that the efflux pump cannot transport substrates out of the cell. One such universal substrate is ethidium bromide, the accumulation of which in the cell can be measured using fluorescence.
The accumulation assay was performed according to previously published methods with minor modifications.[15],[42] Briefly, a bacterial culture of S. aureus MSSA 2 cultured overnight in the presence of colistin (4 mg/L) to induce oxidative stress and activate efflux system[34] was diluted in PBS to OD600 nm = 0.6. The suspension was centrifuged (13,000 × g; 3 min), resuspended in fresh PBS, and distributed into the wells of a black 96-well microtiter plate (ThermoFisher Scientific). Samples were diluted with EtBr solution (4 μg/mL). 50 μL of the mixture was added to 50 μL of the bacterial suspension. The reaction was monitored using SpectraMax iD5Multi-Mode Microplate Reader (ex/em = 530/600 nm) every 60 s for 60 min.

N#CC(C#N)=NNc1cccc(Cl)c1 [CCCP, carbonyl cyanide 3-chlorophenylhydrazone, reference compound]
efflux inhibition (ethidium bromide accumulation), in words: increases the accumulation of ethidium bromide
